In patent US20220288026A1, “METHODS OF TREATING KIDNEY DISEASES” (priority 2019, published 2022):
“Also recorded” adds a separate entry of the source. Like-named read-outs stand apart in the source and are kept apart here.

How the values were obtained:
[1] = tested on: primary human renal mesangial cells (HRMCs); assay: Proliferation (BrdU) of HRMCs stimulated with IgA-containing immune complexes; type: cell-based
Source text: Primary human mesangial cells in a culture were stimulated with pathogenic galactose deficient (Gd)-IgA containing immune complexes isolated from human IgA nephropathy patients.
Specifically, pathogenic IgA-containing immune complexes were isolated from serum from either IgA nephropathy patients or age, gender and ethnicity-matched healthy individuals. Frozen serum was purchased from BioIVT and IgA-containing immune complexes were purified using jacalin affinity chromatography. […] Purified IgA-containing immune complexes were concentrated using a 100K Amicon filtration unit and the amount of total IgA and galactose-deficient IgA (Gd-IgA) in the immune complexes was measured by ELISA (ThermoFisher and IBL America, respectively). […] See, e.g., Novak et. al., Kidney International, 67, pp. 504-516; 2005; Novak et. al., Nephrol. Dial. Transplant, 26, pp. 3451-3457; 2011; Liang et. al., Cell Physiol. Biochem., 36, pp. 1793-1808; 2015; Nguyen et. al., Clin. Kidney J., 12 (2), pp, 232-238; 2019.

g-ddY mice = assay: UACR (albuminuria) in g-ddY mouse model of IgA nephropathy; type: in vivo
Source text: The grouped ddY (g-ddY) mouse is a spontaneous model of early-onset IgA nephropathy characterized by IgA immune complex deposition in the mesangium of the kidney, leading to significant proteinuria, glomerular hypercellularity, mesangioproliferative glomerular lesions, glomerular sclerosis and reduced kidney function, all hallmarks of human IgA nephropathy (J Am Soc Nephrol 23: 1364-1374, 2012). Consistent with human IgA nephropathy, the mesangial IgA deposits in the g-ddY mouse are also accompanied by deposition of IgG and complement C3.

[2] = tested on: kidney tissue of g-ddY mice; assay: Ingenuity Pathway Analysis (IPA) canonical pathways, g-ddY kidney RNA-seq; type: in vivo, mouse; details: 30 mg/kg/day
Method: (§1) RNA isolation and sequencing libraries were generated using standard protocols. Sequencing was performed using an Illumina NextSeq500 using manufacturer's instructions with a read length of 75 bp and a read depth of 30 million. Raw data was assembled to FASTQ files. Following QC analysis, high quality sequencing reads (e.g., reads with a Phred quality score >36) were aligned to the mouse reference genome (GRCm38-mm10) using the default parameters of the align algorithm and transcript count tables of each library was generated using the default parameters of the featureCounts algorithm of the RSubread package (Liao Y, Smyth G K, Shi W, 2019). High quality sequencing reads mapped to 27,129 genes. Following additional QC of low count filtering (i.e. transcripts <10 counts across all samples), 16,207 genes were identified and used for further analysis. The remaining sequencing read counts of the included 16,207 genes were normalized to library size, log-transformed, and were quantified as counts per million (CPM). Select RNA-seq counts were validated using qPCR.

[3] = tested on: kidney tissue of g-ddY mice; assay: Gene Set Enrichment Analysis (GSEA) hallmark gene sets, g-ddY kidney RNA-seq; type: in vivo, mouse
Method: as §1

[4] = tested on: kidney tissue of g-ddY mice; assay: IPA upstream regulator analysis, g-ddY kidney RNA-seq; type: in vivo, mouse; details: 30 mg/kg/day
[5] = tested on: kidney tissue of g-ddY mice
[6] = tested on: patients with diabetic kidney disease (DKD); details: cited from earlier work
[7] = 10 mg/kg/day vs untreated control
[8] = 20 mg/kg/day vs untreated control
[9] = 30 mg/kg/day vs untreated control

CCCCN(CCCC)C(=O)CN1C[C@H](c2ccc3c(c2)OCO3)[C@@H](C(=O)O)[C@@H]1c1ccc(OC)cc1 [atrasentan, (2R,3R,4S)-4-(1,3-benzodioxol-5-yl)-1-[2-(dibutylamino)-2-oxoethyl]-2-(4-methoxyphenyl)pyrrolidine-3-carboxylic acid]
basal cell proliferation of HRMCs ([1]; IgA containing serum fractions from healthy controls): no effect on basal cell proliferation | hyperproliferation of HRMCs induced by IgA containing immune complexes ([1]; immune complexes from three patients with IgA nephropathy): reduces the proliferation; also recorded: significantly attenuated the hyperproliferation | UACR reduction compared to control group (un-paired t-test) (g-ddY mice; 10 mg/kg/day): not significant | mice with reduced albuminuria/proteinuria (g-ddY mice; 10 mg/kg/day group): ⅔ | albuminuria compared to baseline (paired t-test) (g-ddY mice; 10 mg/kg/day, approximately 5 days): not significantly changed from baseline | UACR reduction compared to control group (un-paired t-test) (g-ddY mice; 20 mg/kg/day, P=0.0498): statistically significant compared to the control group | albuminuria compared to baseline (paired t-test) (g-ddY mice; 20 mg/kg/day, approximately 5 days, P=0.0593): reduced from baseline to a similar extent | UACR reduction compared to control group (un-paired t-test) (g-ddY mice; 30 mg/kg/day, P=0.029): statistically significant compared to the control group | albuminuria compared to baseline (paired t-test) (g-ddY mice; 30 mg/kg/day, approximately 5 days, P=0.0002): reduced albuminuria from baseline | albuminuria reduction from baseline (g-ddY mice; 20 and 30 mg/kg/day, approximately 5 days): > 60% | IPA: effect on signaling pathways [2]: reduced NF-κB signaling, IL-6 pathway signaling (e.g., STAT3), and PDGF signaling | NF-κB signaling [2]: reduced NF-κB signaling | PDGF signaling [2]: reduced PDGF signaling | NES HALLMARK_REACTIVE_OXYGEN_SPECIES_PATHWAY ([3]; 10 mg/kg/day vs. control): 1.59 | NES HALLMARK_REACTIVE_OXYGEN_SPECIES_PATHWAY ([3]; 20 mg/kg/day vs. control): 1.61 | IL-6 signaling ([3]; 30 mg/kg/day): reduced IL-6 signaling | cell proliferation associated signaling (mitotic spindle and G2M checkpoint) ([3]; 30 mg/kg/day): reduced cell proliferation associated signaling | inflammatory response signaling ([3]; 30 mg/kg/day): reduced inflammatory response signaling | NES HALLMARK_REACTIVE_OXYGEN_SPECIES_PATHWAY ([3]; 30 mg/kg/day vs. control): 1.98 | GSEA: TNFα signaling via NF-κB, epithelial mesenchymal transition, inflammatory response, IL6-JAK-STAT3 signaling, mitotic spindle, G2M checkpoint ([3]; 10, 20, and 30 mg/kg/day): concordant negative enrichment | Predicted Activation State 26s Proteasome [4]: Inhibited | Predicted Activation State ADGRF5 [4]: Activated | Predicted Activation State AGT [4]: Inhibited | Predicted Activation State BMP2 [4]: Inhibited | Predicted Activation State CCL5 [4]: Inhibited | Predicted Activation State CCN5 [4]: Activated | Predicted Activation State CCR2 [4]: Inhibited | Predicted Activation State CD40LG [4]: Inhibited | Predicted Activation State CG [4]: Inhibited | Predicted Activation State CHRM3 [4]: Inhibited | Predicted Activation State CSF2 [4]: Inhibited | Predicted Activation State CSF3 [4]: Inhibited | Predicted Activation State CXCL12 [4]: Inhibited | Predicted Activation State DKK1 [4]: Activated | Predicted Activation State EDN1 [4]: Inhibited | Predicted Activation State EDNRA [4]: Inhibited | Predicted Activation State EGF [4]: Inhibited | Predicted Activation State F2R [4]: Inhibited | Predicted Activation State F3 [4]: Inhibited | Predicted Activation State FAS [4]: Activated | Predicted Activation State FCGR1A [4]: Inhibited | Predicted Activation State FGF2 [4]: Inhibited | Predicted Activation State FGF23 [4]: Inhibited | Predicted Activation State GDF2 [4]: Inhibited | Predicted Activation State GPER1 [4]: Inhibited | Predicted Activation State HGF [4]: Inhibited | Predicted Activation State HTR7 [4]: Inhibited | Predicted Activation State IFNA2 [4]: Inhibited | Predicted Activation State IFNAR1 [4]: Inhibited | Predicted Activation State IFNG [4]: Inhibited | Predicted Activation State IGF1 [4]: Inhibited | Predicted Activation State IGF1R [4]: Activated | Predicted Activation State IL1A [4]: Inhibited | Predicted Activation State IL1B [4]: Inhibited | Predicted Activation State IL2 [4]: Inhibited | Predicted Activation State IL3 [4]: Inhibited | Predicted Activation State IL6 [4]: Inhibited | Predicted Activation State IL6R [4]: Inhibited | Predicted Activation State IL10 [4]: Inhibited | Predicted Activation State IL21 [4]: Inhibited | Predicted Activation State IL33 [4]: Inhibited | Predicted Activation State ILR4 [4]: Inhibited | Predicted Activation State Ifn gamma [4]: Inhibited | Predicted Activation State Ige [4]: Inhibited | Predicted Activation State LDL [4]: Inhibited | Predicted Activation State LGR5 [4]: Activated | Predicted Activation State Laminin (complex) [4]: Activated | Predicted Activation State NFkB (complex) [4]: Inhibited | Predicted Activation State NRG1 [4]: Inhibited | Predicted Activation State OSM [4]: Inhibited | Predicted Activation State PDGF BB [4]: Inhibited | Predicted Activation State PDGFB [4]: Inhibited | Predicted Activation State PF4 [4]: Inhibited | Predicted Activation State PI3K (complex) [4]: Inhibited | Predicted Activation State PLA2R1 [4]: Activated | Predicted Activation State PRL [4]: Inhibited | Predicted Activation State PROKR1 [4]: Activated | Predicted Activation State PTGER4 [4]: Activated | Predicted Activation State Pdgf (complex) [4]: Inhibited | Predicted Activation State SMO [4]: Activated | Predicted Activation State TCR [4]: Inhibited | Predicted Activation State TGFB1 [4]: Inhibited | Predicted Activation State TGFB2 [4]: Inhibited | Predicted Activation State TGFB3 [4]: Inhibited | Predicted Activation State TLR3 [4]: Inhibited | Predicted Activation State TLR9 [4]: Inhibited | Predicted Activation State TNF [4]: Inhibited | Predicted Activation State TNFRSF1A [4]: Inhibited | Predicted Activation State TNFSF11 [4]: Inhibited | Predicted Activation State TNFSF12 [4]: Inhibited | Predicted Activation State TREM1 [4]: Inhibited | Predicted Activation State TSLP [4]: Inhibited | Predicted Activation State TYROBP [4]: Inhibited | Predicted Activation State VEGFA [4]: Inhibited | Predicted Activation State VEGFB [4]: Activated | Predicted Activation State WNT3A [4]: Inhibited | ET1 gene signature genes downregulated [5, 7]: Grk5, Mllt3, Klf2, Pparg, Hgf, Edn1, Fos, Ptgs2, and IL-1b were downregulated | ET1 gene signature genes upregulated [5, 7]: Ccnd1, Ppara, Agt, Map2k2 and Hoxa9 were upregulated | ET1 gene signature genes downregulated [5, 8]: Nfatc1, Grk5, Klf2, Cav1, Pparg, Itga5, Myc, Ednra, Sell, Hgf, Mmp2, Edn1, Syk, Fos, and IL-1b were downregulated | ET1 gene signature genes upregulated [5, 8]: Ccdn1, Cat, Ppara, Map2k2, Hoxa9, Agt, and Egfr were upregulated | ET1 gene signature genes downregulated [5, 9]: downregulated genes Ednrb, Myc, Mllt3, Hdac7, Ednra, Itga5, Grk5, Pparg, Klf2, Hgf, Mmp2, Sell, Sphk1, Fos, Syk, Edn1, and IL-1b | ET1 gene signature genes upregulated [5, 9]: upregulated genes Ccnd1, Agt, Cat, Map2k2, Hoxa9, and Ppara | ET1 (Edn1) gene expression ([5]; 10, 20, and 30 mg/kg/day): downregulated across all three doses | risk of renal events (doubling of serum creatinine or end-stage kidney disease) [6]: significantly reducing the risk of renal events
